Assay: thermodynamic solubility of regorafenib monohydrate in different solvents
Assay type: physicochemical
Conditions: thermodynamic from solid
Text: Furthermore salts of the compound of formula (I) such as its hydrochloride, mesylate and phenylsulfonate are mentioned in WO 2005/009961. The monohydrate of the compound of formula (I) is mentioned in WO 2008/043446. An improved process for the manufacturing of regorafenib in high purity is described in WO 2011/128261. Due to the limited solubility of regorafenib monohydrate (see table 1) an applicable pharmaceutical composition containing regorafenib is in form of a solid dispersion as described in WO 2006/026500.

solubility (aqueous with cosolvent or surfactant or cyclodextrin, solvent: HPβ-Cyclodextrin/water (10:90)): < 100 µg/mL
solubility (aqueous with cosolvent or surfactant or cyclodextrin, solvent: PEG 400/water (30:70)): 270 µg/mL
solubility (light liquid paraffin, oil or lipid, solvent: Ligth liquid paraffin): < 100 µg/mL
solubility (oil or lipid, solvent: Oleoylpolyethylenglycol glycerides): 3600 µg/mL
solubility (organic solvent or mixture, solvent: Ethanol): 6400 µg/mL
solubility (organic solvent or mixture, solvent: Polyethylenglycol (PEG) 400): 67300 µg/mL
solubility (solvent: Water): < 100 µg/mL
SMILES: CNC(=O)c1cc(Oc2ccc(NC(=O)Nc3ccc(Cl)c(C(F)(F)F)c3)c(F)c2)ccn1 [regorafenib monohydrate]

Source: patent US20140065212A1, “COATED PHARMACEUTICAL COMPOSITION CONTAINING REGORAFENIB” (Bayer Healthcare LLC, priority 2012, published 2014)
